# Experimental data reported in publication PMC7699745, “The Search for New Anticonvulsants in a Group of (2,5-Dioxopyrrolidin-1-yl)(phenyl)Acetamides with Hybrid Structure—Synthesis and In Vivo/In Vitro Studies” (International Journal of Molecular Sciences, 2020).
# Read-outs that look alike come from different tables or passages of the source.
# Legend:
# [1] = system: MES seizures, mice; assay: Maximal electroshock (MES) seizure test; assay type: in vivo; settings: Mus musculus, ip; for responders at 100 mg/kg: 0.5 h, i.p.; for ED50: at TPE (0.5 h; LTG 1.0 h), 95% confidence intervals in parentheses
# [2] = system: 6 Hz (32 mA) seizures, mice; assay: Psychomotor 6 Hz (32 mA) seizure model; assay type: in vivo; settings: for responders at 100 mg/kg / ED50: Mus musculus, ip; for responders at 100 mg/kg / protection in the 6 Hz (32 mA) test: 0.5 h, 100 mg/kg; for responders at 100 mg/kg: read-out: 6 Hz (32 mA) test, number of mice protected / number of mice tested (converted); for ED50: at TPE (0.5 h; LTG 1.0 h), 95% confidence intervals in parentheses; for protection in the 6 Hz (32 mA) test: i.p., groups of four
# [3] = Rotarod test for acute neurological toxicity; settings: mouse, in vivo, ip
# [4] = system: motor coordination of mice; assay: Rotarod test for acute neurological toxicity; settings: for impairment of motor coordination of mice: doses as high as 300 mg/kg; for Rotarod test, number of mice / number of mice tested: i.p., 100 mg/kg, 0.5 h
# [5] = read-out: MES test, number of mice protected / number of mice tested (converted)
# [6] = groups of four, read-out: protection in the MES test
melting point [°C],SMILES,"responders at 100 mg/kg [1, 5] [%]",responders at 100 mg/kg [2] [%],"responders at 100 mg/kg [1, 6] [%]",ED50 [1] [mg/kg],TD50 at 0.5 h [3] [mg/kg],impairment of motor coordination of mice [4],"Rotarod test, number of mice / number of mice tested [4]",ED50 [2] [mg/kg],protection in the 6 Hz (32 mA) test [2]
–,"O=C(Nc1cccc(F)c1)C(c1ccccc1)N1C(=O)CCC1=O (stereo not shown) [Compound 5, 2-(2,5-Dioxopyrrolidin-1-yl)-N-(3-fluorophenyl)-2-phenylacetamide]",0,25,–,–,–,–,–,–,–
76.8 to 78.6,"O=C(Nc1ccccc1Cl)C(c1ccccc1)N1C(=O)CCC1=O (stereo not shown) [Compound 7, N-(2-Chlorophenyl)-2-(2,5-dioxopyrrolidin-1-yl)-2-phenylacetamide]",0,25,–,–,–,–,–,–,–
–,"O=C(Nc1ccccc1C(F)(F)F)C(c1ccccc1)N1C(=O)CCC1=O (stereo not shown) [Compound 10, 2-(2,5-Dioxopyrrolidin-1-yl)-2-phenyl-N-(2-(trifluoromethyl)phenyl)acetamide]",0,–,–,–,–,–,–,–,–
158.2 to 159.4,"O=C(Nc1cccc(C(F)(F)F)c1)C(c1ccccc1)N1C(=O)CCC1=O (stereo not shown) [Compound 11, 2-(2,5-Dioxopyrrolidin-1-yl)-2-phenyl-N-(3-(trifluoromethyl)phenyl)acetamide]",25,–,–,–,–,–,–,–,–
188.1 to 188.5,"O=C(Nc1ccc(C(F)(F)F)cc1)C(c1ccccc1)N1C(=O)CCC1=O (stereo not shown) [Compound 12, 2-(2,5-Dioxopyrrolidin-1-yl)-2-phenyl-N-(4-(trifluoromethyl)phenyl)acetamide]",0,–,–,–,–,–,–,–,–
132.6 to 133.4,"O=C(Nc1cccc(OC(F)(F)F)c1)C(c1ccccc1)N1C(=O)CCC1=O (stereo not shown) [Compound 13, 2-(2,5-Dioxopyrrolidin-1-yl)-2-phenyl-N-(3-(trifluoromethoxy)phenyl)acetamide]",0,–,–,–,–,–,–,–,–
148.3 to 149.3,"O=C(NCc1ccccc1F)C(c1ccccc1)N1C(=O)CCC1=O (stereo not shown) [Compound 15, 2-(2,5-Dioxopyrrolidin-1-yl)-N-(2-fluorobenzyl)-2-phenylacetamide]",25,–,–,–,–,–,–,–,–
136.7 to 137.7,"O=C(NCc1cccc(F)c1)C(c1ccccc1)N1C(=O)CCC1=O (stereo not shown) [Compound 16, 2-(2,5-Dioxopyrrolidin-1-yl)-N-(3-fluorobenzyl)-2-phenylacetamide]",25,–,–,–,–,–,–,–,–
146.3 to 147.7,"O=C(NCc1ccc(F)cc1)C(c1ccccc1)N1C(=O)CCC1=O (stereo not shown) [Compound 17, 2-(2,5-Dioxopyrrolidin-1-yl)-N-(4-fluorobenzyl)-2-phenylacetamide]",0,–,–,–,–,–,–,–,–
152 to 153.6,"O=C(NCc1ccccc1Cl)C(c1ccccc1)N1C(=O)CCC1=O (stereo not shown) [Compound 18, N-(2-Chlorobenzyl)-2-(2,5-dioxopyrrolidin-1-yl)-2-phenylacetamide]",0,–,–,–,–,–,–,–,–
–,"O=C(NCc1cccc(Cl)c1)C(c1ccccc1)N1C(=O)CCC1=O (stereo not shown) [Compound 19, N-(3-Chlorobenzyl)-2-(2,5-dioxopyrrolidin-1-yl)-2-phenylacetamide]",75,50,≥ 50,90.7,> 300,did not impair motor coordination,0/4,89.9,at least 50%
146.3 to 147.9,"O=C(NCc1ccc(Cl)cc1)C(c1ccccc1)N1C(=O)CCC1=O (stereo not shown) [Compound 20, N-(4-Chlorobenzyl)-2-(2,5-dioxopyrrolidin-1-yl)-2-phenylacetamide]",0,–,–,–,–,–,–,–,–
–,"O=C(NCc1ccc(C(F)(F)F)cc1)C(c1ccccc1)N1C(=O)CCC1=O (stereo not shown) [Compound 23, 2-(2,5-Dioxopyrrolidin-1-yl)-2-phenyl-N-(4-(trifluoromethyl)benzyl)acetamide]",0,–,–,–,–,–,–,–,–
142.4 to 142.8,"O=C(NCCc1ccccc1F)C(c1ccccc1)N1C(=O)CCC1=O (stereo not shown) [Compound 26, 2-(2,5-Dioxopyrrolidin-1-yl)-N-(2-fluorophenethyl)-2-phenylacetamide]",25,–,–,–,–,–,–,–,–

SMILES,melting point [°C],"responders at 100 mg/kg [1, 5] [%]",responders at 100 mg/kg [2] [%],"responders at 100 mg/kg [1, 6] [%]",ED50 [1] [mg/kg],TD50 at 0.5 h [3] [mg/kg],impairment of motor coordination of mice [4],"Rotarod test, number of mice / number of mice tested [4]",ED50 [2] [mg/kg],protection in the 6 Hz (32 mA) test [2]
"O=C(Nc1ccc(F)cc1)C(c1ccccc1)N1C(=O)CCC1=O (stereo not shown) [Compound 6, 2-(2,5-Dioxopyrrolidin-1-yl)-N-(4-fluorophenyl)-2-phenylacetamide]",143.4 to 143.9,50,50,≥ 50,118,> 300,did not impair motor coordination,0/4,57.6,at least 50%
"O=C(Nc1cccc(Cl)c1)C(c1ccccc1)N1C(=O)CCC1=O (stereo not shown) [Compound 8, N-(3-Chlorophenyl)-2-(2,5-dioxopyrrolidin-1-yl)-2-phenylacetamide]",109.4 to 109.9,75,25,≥ 50,73.5,> 300,did not impair motor coordination,0/4,–,–
"O=C(Nc1ccc(Cl)cc1)C(c1ccccc1)N1C(=O)CCC1=O (stereo not shown) [Compound 9, N-(4-Chlorophenyl)-2-(2,5-dioxopyrrolidin-1-yl)-2-phenylacetamide]",103.8 to 105.6,75,25,≥ 50,106,> 300,did not impair motor coordination,0/4,–,–
"O=C(NCc1ccccc1)C(c1ccccc1)N1C(=O)CCC1=O (stereo not shown) [Compound 14, N-Benzyl-2-(2,5-dioxopyrrolidin-1-yl)-2-phenylacetamide]",128.3 to 129.9,50,50,≥ 50,> 130,> 300,did not impair motor coordination,1/4,62.9,at least 50%
"O=C(NCc1cccc(C(F)(F)F)c1)C(c1ccccc1)N1C(=O)CCC1=O (stereo not shown) [Compound 22, 2-(2,5-Dioxopyrrolidin-1-yl)-2-phenyl-N-(3-(trifluoromethyl)benzyl)acetamide]",152.8 to 153.4,75,50,≥ 50,> 130,> 300,did not impair motor coordination,0/4,57.6,at least 50%
"O=C(NCCc1ccc(Cl)cc1)C(c1ccccc1)N1C(=O)CCC1=O (stereo not shown) [Compound 28, N-(4-Chlorophenethyl)-2-(2,5-dioxopyrrolidin-1-yl)-2-phenylacetamide]",137.2 to 137.8,100,75,–,117,272,–,1/4,88.1,–
"O=C(NCCCc1ccccc1)C(c1ccccc1)N1C(=O)CCC1=O (stereo not shown) [Compound 31, 2-(2,5-Dioxopyrrolidin-1-yl)-2-phenyl-N-(3-phenylpropyl)acetamide]",133.1 to 133.9,50,50,≥ 50,–,> 300,–,0/4,104,–
